The values that follow come from patent US9392792B1, “Topical combination of fipronil, permethrin and pyriproxyfen” (priority 2014, dated 2016).

The nature of the series: Crystallization test on glass slides at ambient temperature. It counts as physicochemical. The conditions noted are these: comparison of compositions R1 and C2. Here is the method:
Number of glass slides per composition: 5 Protocol: • place the glass slides on a dark-coloured support; • deposit approximately 300 μl of the test composition on each glass slide, while spreading it on the central part of the glass slide (so as to avoid overspill); • leave the glass slide for 24 h in an environment at ambient temperature (approximately 20° C.). The following observations will be carried out: • the visual appearance (to the naked eye) of the compositions is observed after deposition thereof on a glass slide and reported in the observation table; • the visual appearance (to the naked eye) of the compositions is observed after 24 h at ambient temperature and is reported in the observation table while pointing out the possible presence and, where appropriate, the number of crystals present on the whole of the plate; • next, the plates are observed under polarized light and any crystals present are counted on the whole of the plate; an estimation of the size of the crystals is also carried out; • finally, the presence and the count of the crystals possibly present on each of the plates is reported in the observation table. […]

In the case of `CC(COc1ccc(Oc2ccccc2)cc1)Oc1ccccn1` (stereo not shown) [pyriproxyfen, Pyriproxyfen], the “effect of pyriproxyfen on crystallization of fipronil in the presence of permethrin at high concentration” value is “substantially reduces the crystallization”.
